Columns and labels:
[1] = tested on: uni-nephrectomized Sprague Dawley rats; assay: In vivo model of aldosterone mediated renal disease; conditions: 10 mg/kg/day x 28 days, oral gavage, aldosterone infusion, 6% salt diet, rat
Protocol: Male uni-nephrectomized Sprague Dawley rats (240-280 g) are housed individually with ad lib house water and rodent 5001 diet for one week. After acclimation, baseline 24 h urine samples are collected and analyzed for total urine protein and creatinine. Animals are randomized via body weight and baseline urine protein into study groups. Baseline serum is taken by tail-clip and analyzed for blood urea nitrogen (BUN), creatinine, and electrolytes. After baseline samples are taken, all rats with the exception of the control group are maintained on a diet containing 6% salt, and drinking water containing 0.3% KCl throughout the study duration. […] Alza mini-pumps to deliver 2.5 μl/h×28 days of d-aldosterone in 0.01% DMSO at 0.75 μg/h, s.c. are implanted in non-control animals (e.g Test Compound group and Vehicle only group) under isoflourane anesthesia. Test compound, in a vehicle comprising 1% carboxy methylcellulose (CMC)/0.25% polysorbate 80, or vehicle alone, is then administered by once daily oral gavage (10 mL/kg) beginning the day after aldosterone implantation. Repeat urine samples are collected after 2 and 4 weeks of compound or vehicle alone administration and analyzed for total urine protein and creatinine. At study termination, pharmacokinetic samples are obtained at 8 timepoints (0.5, 1, 2, 3, 6, 8, 12 and 24 h). […]

[2] = tested on: uni-nephrectomized Sprague Dawley rats; assay: In vivo model of aldosterone mediated hypertension; conditions: orally once daily 1-30 mg/kg/day x 14 days, rat
Protocol: Male uni-nephrectomized Sprague Dawley rats (240-280 g) are housed individually with ad lib house water and rodent 5001 diet for one week. After acclimation, animals are implanted with Alzet pumps to subcutaneously deliver 0.25 μg/h of aldosterone at 2.5 μl/h for up to 28 days, and maintained on a diet containing 6% NaCl and drinking water containing 0.3% KCl throughout the duration of the study. Radiotelemetry devices are also implanted to monitor arterial blood pressure. For example, signals from each animal are sampled every 10 minutes throughout the study. The mean (±SEM) of all values collected over a twenty four hour period represent the mean daily arterial pressure for each animal.
On the day following pump implantation, test compound in a vehicle comprising 1% medium viscosity sodium carboxy methylcellulose/0.25% polysorbate 80/0.05% Antifoam 1510 ™, or vehicle alone, is then administered by once daily oral gavage (10 mL/kg).

[3] = tested on: adrenalectomized Sprague Dawley rats; assay: In vivo assay of electrolyte modulation; conditions: 30 mg/kg p.o., aldosterone 3 μg/kg s.c., urine collected 5 hours after dose, rat
Protocol: Male Sprague Dawley rats (240-280 g) are adrenalectomized then maintained on 5001 rodent chow and 1% NaCl drinking solution for 6 days after surgery. Animals are then fasted overnight and 1% saline drinking water is replaced with house water ad lib. The morning of the study, fasted animals are randomized to treatment on the basis of fasted body weight. Control animals (e.g. those that receive no aldosterone or test compound) are given 10 mL/kg of test compound vehicle comprising 0.5% CMC/0.25% polysorbate 80/2.7% NaCl by oral gavage, and 1 mL/kg of aldosterone vehicle (0.01% DMSO/water) by subcutaneous injection. Vehicle animals are given the same test compound vehicle by oral gavage and aldosterone 3 μg/kg, s.c. Test substances are suspended in the carboxy methylcellulose/NaCl vehicle. The test compound treatment groups receive test substance suspended in the carboxy methylcellulose/NaCl vehicle and aldosterone 3 μg/kg s.c. Immediately after dosing, animals are placed in metabolic racks with ad lib access to house water. Urine samples are collected 5 hours after dose administration and electrolyte excretion is assayed. Data are presented as log Na/K excretion ratio or % of Na/K ratio with respect to adrenalectomized vehicle treated animals. […]

In the case of `O=c1[nH]c2cc(/C=C3\c4ccccc4COc4cc(F)ccc43)ccc2n1[C@@H]1C[C@@H]2COCCN2C1` [Compound (I), 5-((E)-(3-fluorodibenzo[b,e]oxepin-11(6H)-ylidene)methyl)-1-((7R,8aR)-hexahydro-1H-pyrrolo[2,1-c][1,4]oxazin-7-yl)-1H-benzo[d]imidazol-2(3H)-one], the “reduction of urinary protein excretion compared to vehicle treated animals” value [1] is reported as “about 60%”, the “effect on the hypertensive effects of aldosterone in the presence of salt compared to vehicle” value [2] is reported as “dose dependently reduced the hypertensive effects of aldosterone” and the “increase of urinary Na/K excretion ratio compared to vehicle treated animals” value [3] is reported as “about 30%”.

Reference: US8658638B2, “Mineralocorticoid receptor antagonist and methods of use” (priority 2009, dated 2014)
